From PubChem BioAssay (NCI)
Several values for one entry are separate records, joined by “and”; a condition that tells them apart may be missing. Equal entries are not always repeated.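 Growth conditions: 96-well plates. Treatment: test compound, 48 hours, 5 concentrations. Analysis: linear interpolation between bracketing concentrations; unreached endpoints set to highest concentration. The concentration for 50% growth inhibition is given as GI50. TGI: concentration producing complete growth inhibition.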 Where a SMILES comes first, the peptide text is derived from it. Bridges are numbered along the chain shown (N, C = ends). [ ]: non-standard residue; d: D form. The star is where a group is joined. ξ: configuration not given here. ξDab(CH2SO3H) = NC(CCNCS(=O)(=O)O)C(=O)O; Heptanoyl(6-Me) = CC(C)CCCCC(=O)*; Dab = NCC[CH](N)C(=O)O

Columns and labels:
Assay in all cases: NCI-60 cell line screen, 48 h
[1] = tested on: 786-0 renal
[2] = tested on: ACHN renal
[3] = tested on: DU-145 prostate
[4] = tested on: K-562 leukemia
[5] = tested on: LOX IMVI melanoma
[6] = tested on: RXF 393 renal
[7] = tested on: SF-268 CNS
[8] = tested on: SNB-19 CNS

Compound	TGI [1]	TGI [2]	TGI [3] [µM]	TGI [4] [µM]	TGI [5]	TGI [6]	TGI [7] [µM]	TGI [8]	GI50 [1]	GI50 [2] [nM]	GI50 [3] [µM]	GI50 [4] [nM]	GI50 [5] [nM]	GI50 [6] [nM]	GI50 [7] [µM]	GI50 [8] [µM]
CCc1nc(N)nc(N)c1-c1ccc2nnn(O)c2c1	> 100 µM	> 100 µM	> 100	> 100	> 100 µM	> 100 µM	> 100	> 100 µM								
CCCc1cc(=O)n2c(C(=O)Nc3cccc(C(=O)OCC)c3)c(C(=O)Nc3ccc(F)cc3)sc2n1	5.25 µM	109 µM	> 140	> 140	> 140 µM	13.4 µM	128	132 µM	1.43 µM	4010	58.8	60300	6650	5300	26.6	25.5
Nc1nc(N)c(-c2ccccc2)c(C(=O)Nc2ccccc2)n1	> 100 µM	> 100 µM		> 100	> 100 µM	> 100 µM	> 100	> 100 µM								
C[C@@H]1CCC([C@@H](C)[C@H]2CC[C@H]3[C@@H]4CC[C@H]5C[C@@H](O)CC[C@]5(C)[C@H]4CC[C@]23C)=NC1	> 56.2 µM	> 61.5 µM	> 100	> 100	> 100 µM	> 100 µM	> 100	> 100 µM								
CCCCCCn1c(-c2ccc(C(=O)O/N=C(\N)c3ccc4ccccc4c3)cc2)nc(-c2ccccc2)c1-c1ccccc1	> 100 µM		> 100	> 100		29.7 µM	> 100	> 100 µM	7.63 µM		> 100	2420		5280	6.71	22.3
C[C@]12CC[C@@H]3c4cc(O)c(O)cc4CC[C@H]3[C@@H]1CC[C@@H]2O	> 100 µM	54.5 µM	> 100	> 100	23.6 µM	19 µM	> 83.2	> 100 µM	6.08 µM	8940	4.46	499	5970	2440	5.81	11.1
Cc1cc(O)cc(C)c1/C=C/c1cncc(C(N)=O)c1	> 25 µM	> 25 µM	> 25	> 25	> 25 µM	13 µM	> 25	> 25 µM	8.6 µM	8430	5.15	1060	1940	2360	3.99	4.34
CCCCCCCCC/C(=N\NC(=O)c1ccncc1)c1ccc(O)c(O)c1O	5.75 µM	> 100 µM	> 100	> 100	11.9 µM	5.2 µM	> 23.4	> 100 µM	0.216 µM	73.4	0.274	498	93.7	168	0.142	0.272
CC1(C)CC[C@]2(C(=O)O)CC[C@]3(C)C(=CC[C@@H]4[C@@]5(C)C[C@H](O)[C@H](O)[C@@](C)(C(=O)O)[C@@H]5CC[C@]43C)[C@@H]2C1	> 100 µM	> 100 µM	> 100	> 100	> 100 µM	> 100 µM	> 100	> 100 µM								
C=C1C(=O)O[C@H]2[C@H]1CC/C(C=Nc1c(N)cc(C(F)(F)F)cc1C(F)(F)F)=C\CC[C@@]1(C)O[C@@H]21	4.11 µM	2.68 µM	3.09	9.53	2.3 µM	2.74 µM	3.82	4.98 µM	2.04 µM	1260	1.63	1240	1070	1240	1.55	1.93
NC(N)=NC(N)=Nc1cnccn1	> 100 µM	> 100 µM	> 100	> 100	> 100 µM	> 100 µM		> 100 µM								
Cc1nc(-c2nc(-c3ccc(OC(F)(F)F)cc3)no2)nn1Cc1cccc(N2CCC(S(C)(=O)=O)CC2)c1	> 100 µM	> 65 µM	> 100	> 100	> 100 µM	44.4 µM	> 100	95.4 µM	18.4 µM	> 26700	> 42.8	< 10	12	5880	> 40.9	8.75
COC(=O)C1=COC(C)C2CN3CCc4c([nH]c5cc(OC)c(OC)cc45)C3CC12 (stereo unspecified)	> 100 µM	> 100 µM	> 100	> 100	> 100 µM	85.8 µM	> 100	> 100 µM								
COc1cc2ncnc(Nc3cccc(Cl)c3F)c2cc1OC(=O)N1CCN(C)C[C@H]1C	> 53.3 µM	> 46.3 µM	> 100	> 63.9	> 53.8 µM	> 50.8 µM	> 75.3	> 100 µM	> 34.2 µM	273	7.35	> 30700	> 36500	> 34400	> 37.1	> 44.8
COc1ccc2c(c1)[nH]c(=O)c1c3ccccc3cn21	1.84 µM and 2.16 µM	1.83 µM and 6.41 µM	11.9		1.77 µM and 2.09 µM	3.19 µM and 2.47 µM		4.05 µM and 26.4 µM	0.0413 µM	125		8.92	71.2	20.4	0.0738	0.0387
COc1cc2c(cc1Cc1cccc(Cl)c1F)c(=O)c(C(=O)O)cn2[C@@H](CO)C(C)C	14.9 µM	20.9 µM	18.8	16.3	10.1 µM	16.3 µM	19.1	16 µM	3.55 µM	4630	5.62	3840	2690	4570	5.42	3.07
Cc1ccc2c(c1)c(Sc1ccc(C(=O)NO)cc1)c1n2CN(C)CC1	8.53 µM	8.63 µM	5.28	11.9	3.36 µM	5.86 µM	3.7	7.27 µM	2.82 µM	2680	1.83	3170	1590	1740	1.6	2.13

Compound	TGI [1]	TGI [2]	TGI [3] [µM]	TGI [4] [µM]	TGI [5]	TGI [6]	TGI [7] [µM]	TGI [8]	GI50 [1]	GI50 [2] [nM]	GI50 [3] [µM]	GI50 [4] [nM]	GI50 [5] [nM]	GI50 [6] [nM]	GI50 [7] [µM]	GI50 [8] [µM]
O=c1[nH]c(=O)c2cc3cc(C4CC(O)C(CO)O4)ccc3cc2[nH]1 (stereo unspecified)	> 100 µM		> 100	> 100	> 100 µM	> 100 µM	> 100	> 100 µM	> 100 µM		> 100	> 100000	> 100000	> 100000	> 100	> 100
Cc1ccc(NC(=O)c2cc3ccccc3c(N=Nc3cc(S(=O)(=O)O)ccc3O)c2O)c(C)c1	> 100 µM	23 µM	> 100	> 100	> 100 µM	63.6 µM	> 100	71.3 µM								
[Cl][Hg][c]1ccc(Cl)s1	2.61 µM	3.33 µM	17.6	7.29	3.24 µM	2.95 µM	13.3	13.4 µM	1.29 µM	1780	4.56	729	1530	1560	3.48	3.15
CN1CCC2(CC1)NC(=O)c1c(c3ccc(Cl)c(Cl)c3n1C)C2C#N (stereo unspecified)	24 µM	19.4 µM	15.2	> 100	18.1 µM	7.3 µM	15.2	27.4 µM	10.1 µM	5750	6.01	5760	4710	2270	4.54	12.8
COc1ccc2c(O)c(/C=C3\N=Nc4ccccc43)oc2c1C[C@@H]1CCNC[C@H]1F	3.22 µM	3.41 µM	23.7		2.99 µM	3.17 µM	14.1	28.2 µM	1.7 µM	1740	11.2		1600	1660	3.13	9.29
N#Cc1c(N)n2c(nc1=Nc1ccc(Cl)cc1)sc1cc(Cl)ccc12	5.03 µM	> 100 µM	> 100	> 100	> 100 µM		> 100	> 100 µM	5.46 µM and 2.5 µM	9000	> 100	> 100000	13500		4.08	> 100
CCC(C)C1NC(=O)C(CCNCS(=O)(=O)O)NC(=O)C(NC(=O)C(CCNCS(=O)(=O)O)NC(=O)C(NC(=O)C(CCNCS(=O)(=O)O)NC(=O)CCCCC(C)C)C(C)O)CCNC(=O)C(C(C)O)NC(=O)C(CCNCS(=O)(=O)O)NC(=O)C(CCNCS(=O)(=O)O)NC(=O)C(C(C)CC)NC1=O (stereo unspecified) ({Heptanoyl(6-Me)}-[ξDab(CH2SO3H)]T[ξDab(CH2SO3H)][Dab][ξDab(CH2SO3H)]II[ξDab(CH2SO3H)][ξDab(CH2SO3H)]T; lactam 4-C; configuration not given here)	> 25 µM	> 25 µM	23.2		> 25 µM	> 25 µM	> 25	> 25 µM	13 µM	> 25000	7.09		5210	7470	6.88	11.6
COc1ccc2c(c1)oc(=O)c1cc(OC)ccc12	> 100 µM		> 100	> 100	> 100 µM	> 100 µM	> 100	> 100 µM	> 100 µM		> 100	> 100000	> 100000	> 100000	> 100	> 100
CC(N)(/C=C/c1ccccc1)C(=O)O (stereo unspecified)	> 100 µM	> 100 µM		> 100	> 100 µM		> 100	> 100 µM								
COc1ccc(Sc2nc3cc(N)cc(N)c3nc2-c2ccccc2)cc1	> 100 µM		> 100	> 100	> 100 µM	> 100 µM	> 100	> 100 µM	52.3 µM		14.5	9830	51000	> 100000	> 100	> 100
COC(=O)C1=CO[C@@H](OC2OC(CO)C(O)C(O)C2O)[C@H]2[C@@H](C)[C@@H](O)[C@@H](O)[C@@H]12 (stereo partly specified)	> 100 µM	> 100 µM	> 100		> 100 µM	> 100 µM	> 100									
CC(=O)Nc1c(I)c(NC(C)=O)c(I)c(C(=O)O)c1I	> 100 µM	> 100 µM	> 100	> 100	> 100 µM	> 100 µM			> 100 µM	> 100000	> 100	> 100000	> 100000	> 100000		
Cc1cc(Nc2ncc3c(n2)N(C)C(=O)N(c2cc(NC(=O)c4cccc(C(F)(F)F)c4)ccc2C)C3)n(C)n1	> 46.4 µM			> 46.4	0.0305 µM	0.171 µM	> 100	> 46.4 µM	0.0599 µM	28.1		< 10	13.1	21	0.0291	0.234
CC(C)(C)[Si](C)(C)OC1[C@@H](O[Si](C)(C)C(C)(C)C)[C@@H](CNC(=O)NC(=O)CF)O[C@H]1n1cnc2c(NC(=O)Nc3ccccc3)ncnc21 (stereo partly specified)	15.9 µM	38.6 µM	> 50	> 50	12.5 µM	4.57 µM	> 50		7.46 µM	8670	17.7	14700	6140	1350	12.6	
COc1ccc(Cn2cc3c(c2-c2ccccc2)CCc2cnoc2-3)cc1OC	> 100 µM	> 100 µM		> 100	> 100 µM	> 100 µM	> 100	> 100 µM	2.24 µM	2830		330	819	1680	3.68	2.79
CONC(C)=O	> 100 µM	> 100 µM	> 100	> 100	> 100 µM		> 100	> 100 µM								
